Measurements reported in patent publication US5877212A (priority 1997, dated 1999).
Like-named read-outs stand apart in the source and are kept apart here.

How the values were obtained:
[1] = water; cited from earlier work
[2] = format: physicochemical
[3] = in vivo, pH 4.8
[4] = in vivo
[5] = parameters: species or system human; conditions: in vivo

| SMILES | pK1 (pKa) [1] | also measured |
| --- | --- | --- |
| O=C(O)C(O)C(O)C(O)C(O)CO [D-Gluconic acid, 2,3,4,5,6-pentahydroxyhexanoic acid] | 3.86 | – |
| O=C(O)C(O)C(=O)O [Tartronic acid, 2-hydroxypropane-1,3-dioic acid] | 2.37 | pK2 [1]: 4.74 |
| CCC(O)C(=O)O (centres unmarked) [2-Hydroxybutanoic acid] | 3.65 | – |
| CC(C)(O)C(=O)O [Methyllactic acid, 2-methyl 2-hydroxypropanoic acid] | 3.72 | – |
| CC(=O)C(=O)O [Pyruvic acid, 2-ketopropanoic acid] | 2.49 | – |
| CC(O)C(=O)O (centres unmarked) [lactic acid, 2-hydroxypropanoic acid] | – | anion content (lactate) ([2]; pH 4.5): 8%; free acid content ([2]; pH 4.5): 2%; skin irritation [3]: can still irritate sensitive skin or atopic skin |
| O=C(O)C(O)CCl (centres unmarked) [3-Chlorolactic acid] | 3.12 | – |
| CC(O)(C(=O)O)c1ccccc1 (centres unmarked) [Atrolactic acid, 2-phenyl 2-methyl 2-hydroxyethanoic acid] | 3.53 | – |
| O=C(O)CO [Glycolic acid, 2-hydroxyethanoic acid] | – | anion content (glycolate) ([2]; pH 3.2): 2%; free acid content ([2]; pH 3.2): 8%; anion content (glycolate) ([2]; pH 3.83): 5%; free acid content ([2]; pH 3.83): 5% |
| O=C(O)C(O)c1ccccc1 (centres unmarked) [Mandelic acid, 2-phenyl 2-hydroxyethanoic acid] | 3.41 | – |
| O=C(O)C(O)C(O)C(O)C(O)C(=O)O (centres unmarked) [Glucaric acid, 2,3,4,5-tetrahydroxyhexane-1,6-dioic acid] | 5.00 | – |
| O=C(O)C(O)CO (racemic) [DL-Glyceric acid, 2,3-dihydroxypropanoic acid] | 3.64 | – |
| Oc1ccc(O)cc1 [hydroquinone] | – | improvement of pigmented and non-pigmented spots and patches [4]: improved very slightly |
| O=C(O)c1ccccc1O [salicylic acid] | – | improvement of acne lesions [5]: improved slightly |
| C[C@H](O)CC(=O)O [L-3-Hydroxybutanoic acid] | 4.41 | – |
| O=C(O)C(CO)c1ccccc1 (centres unmarked) [Tropic acid, 2-phenyl-3-hydroxypropanoic acid] | 3.53 | – |
| C[C@H](O)C(=O)O [L-Lactic acid, 2-hydroxypropanoic acid] | – | anion content (lactate) ([2]; pH 3.86): 5%; free acid content ([2]; pH 3.86): 5% |
| O=C(O)CC(O)C(=O)O (centres unmarked) [Malic acid, 2-hydroxybutane-1,4-dioic acid] | 3.46 | pK2 [1]: 5.10 |
